Data from patent publication US7642367B2, “Diamino-functional chalcones” (Lica Pharmaceuticals A/S, priority 2002, dated 2010).
Values after ≈ are worked out from the molar mass of the structure shown.

What was measured:
[1] = system: Plasmodium falciparum 3D7; test: Plasmodium falciparum assay (3H-phenylalanine labelling); type: cell-based; conditions: Plasmodium falciparum 3D7 (Table 2); read-out: IC50
[2] = Determination of solubility in phosphate buffer pH 7.4; type: physicochemical; conditions: aqueous buffer at pH 7.4
Protocol: Solubility of the compounds was determined by preparing a saturated solution of compound in 0.3 M phosphate buffer (pH 7.4±0.3) in a brown glass tube. The suspensions were rotated slowly for 24 hours. Aliquots were centrifuged for 10 minutes at 14.000 rpm and supernatants were diluted in 40% (v/v) acetonitrile in water prior to HPLC analysis. Concentrations of analytes were quantified against a standard curve and used as term of solubility.
The HPLC-UV method used for the assessment of solubility is the same as used in the in vitro metabolism assay.

[3] = system: Staphylococcus aureus ATCC33591 (resistant to methicillin); test: MIC determination in broth microdilution assay
[4] = system: Enterococcus faecium #17501 (vancomycin-resistant clinical isolate); test: MIC determination in broth microdilution assay
[5] = system: Streptococcus pneumoniae #998 (clinical isolate); test: MIC determination in broth microdilution assay
[6] = system: Staphylococcus intermedius #2357 (clinical isolate); test: MIC determination in broth microdilution assay
[7] = system: Enterococcus faecalis ATCC29212; test: MIC determination in broth microdilution assay
[8] = system: Staphylococcus aureus ATCC29213; test: MIC determination in broth microdilution assay
L. major promastigotes = test: Leishmania promastigote assay (3H-thymidine)
[9] = Determination of metabolic stability (liver microsomes); type: in vitro ADME, Wistar rat; conditions: rat liver microsomes, 20 μM, 15 min at 37° C.
Protocol: incubations were performed with Wistar rat liver microsomes (0.25 mg/ml) in 2% sodium bicarbonate solution. NADP (0.13 mg/ml), glucose-6-phosphate (0.63 mg/ml) and glucose-6-phosophate dehydrogenase (0.38 units/ml) were used as NADPH generation system and UDPGA (0.48 mg/ml) was added to include the phase II reaction, glucuronic acid conjugation, in the assay. After 5 minutes of pre-incubation the reaction was started by addition of the test article to give a final concentration of 20 μM. Samples were incubated for 15 min at 37° C. and the reactions were terminated by addition of equal volumes of acetonitrile. Blank incubations were performed at the same concentration but without addition of microsomes. Both blank and microsome-containing samples were made in replicats of three. Prior to analysis samples were centrifuged for 10 min. at 3500 rpm, HPLC system:
Initial conditions were 40% mobile phase A (acetonitrile) and 60% mobile phase B (10 mM ammonium acetate pH 9.5). During the first 20 minutes, the mobile phase was changed via a linear gradient to 90% A and 10% B. This was followed by a 5 minutes linear gradient to initial conditions, which were maintained for 5 min. The flow rate was 0.20 ml/min and injection volume 10 μl.

Eschericia coli ESS = test: MIC determination in broth microdilution assay; conditions: H: Eschericia coli ESS; NA: no activity
[10] = system: Bacteroides fragilis, Clostridium perfringens, Clostridium difficele; type: cell-based; conditions: single concentration of compound (100 μM)
[11] = B: Staphylococcus aureus ATCC33591 (resistant to methicillin), NA: no activity
[12] = E: Enterococcus faecium #17501 (vancomycin-resistant), NA: no activity
[13] = F: Streptococcus pneumoniae #998, NA: no activity
[14] = C: Staphylococcus intermedius #2357, NA: no activity
[15] = D: Enterococcus faecalis ATCC29212, NA: no activity
[16] = A: Staphylococcus aureus ATCC29213, NA: no activity

SMILES: Cc1ccccc1-c1ccc(N(C)CCCN(C)C)c(/C=C/C(=O)c2ccccc2CN(C)C)c1 [B147, (E)-1-(2-Dimethylaminomethyl-phenyl)-3-{4-[(3-dimethylamino-propyl)-methyl-amino]-2′-methyl-biphenyl-3-yl}-propenone]
- IC50 [1]: 600 nM

SMILES: COc1ccccc1C(=O)/C=C/c1ccccc1N(C)CCN(C)C [B056, (E)-3-{2-[(2-Dimethylamino-ethyl)-methyl-amino]-phenyl}-1-(2-methoxy-phenyl)-propenone]
- Solubility [2]: 3200 µg/mL (≈ 9.45 mM)

SMILES: CCCCN(CCCC)c1ccc(/C=C/C(=O)c2cccc(NC(=O)CN(C)C)c2)cc1 [B089, (E)-N-{3-[3-(4-Dibutylamino-phenyl)-acryloyl]-phenyl}-2-dimethylamino-acetamide]
- MIC ([3]; Staphylococcus aureus, ATCC33591): 4.7 µM (≈ 2.05 µg/mL)
- MIC ([4]; Enterococcus faecium): 9.4 µM (≈ 4.09 µg/mL)
- MIC ([5]; Streptococcus pneumoniae): 37.5 µM (≈ 16.3 µg/mL)
- MIC ([6]; Staphylococcus intermedius): 4.7 µM (≈ 2.05 µg/mL)
- MIC ([7]; Enterococcus faecalis, ATCC29212): 9.4 µM (≈ 4.09 µg/mL)
- MIC ([8]; Staphylococcus aureus, ATCC29213): 4.7 µM (≈ 2.05 µg/mL)

SMILES: COc1ccccc1-c1ccc(/C=C/C(=O)c2ccccc2CN(C)C)c(N2CCN(C)CC2)c1 [B096, (E)-1-(2-Dimethylaminomethyl-phenyl)-3-[2′-methoxy-3-(4-methyl-piperazin-1-yl)-biphenyl-4-yl]-propenone]
- IC50 (L. major promastigotes; L. major): 1200 nM

SMILES: COc1ccccc1-c1ccc(/C=C/C(=O)c2ccccc2CN(C)CCN(C)C)c(N2CCN(C)CC2)c1 [B216, (E)-1-(2-{[(2-Dimethylamino-ethyl)-methyl-amino]-methyl}-phenyl)-3-[2′-methoxy-3-(4-methyl-piperazin-1-yl)-biphenyl-4-yl]-propenone]
- Metabolic turn-over in vitro [9]: 6%

SMILES: COc1ccc(/C=C/C(=O)c2ccccc2N(C)CCN(C)C)cc1 [B023, (E)-1-{2-[(2-Dimethylamino-ethyl)-methyl-amino]-phenyl}-3-(4-methoxy-phenyl)-propenone]
- Solubility [2]: 30600 µg/mL (≈ 90.4 mM)

SMILES: CN(C)Cc1ccccc1C(=O)/C=C/c1cc(N2CCN(C)CC2)ccc1Br [B124, (E)-3-[2-Bromo-5-(4-methyl-piperazin-1-yl)-phenyl]-1-(2-dimethylaminomethyl-phenyl)-propenone]
- Solubility [2]: 2000 µg/mL (≈ 4.52 mM)

SMILES: COc1ccc(C(=O)/C=C/c2cc(-c3ccccc3OC)ccc2N2CCN(C)CC2)c(F)c1 [B083, (E)-1-(2-Fluoro-4-methoxy-phenyl)-3-[2′-methoxy-4-(4-methyl-piperazin-1-yl)-biphenyl-3-yl]-propenone]
- MIC [3, 11]: 9.4 µM (≈ 4.33 µg/mL)
- IC50 (L. major promastigotes; L. major): 500 nM
- MIC [4, 12]: 9.4 µM (≈ 4.33 µg/mL)
- MIC [5, 13]: 37.5 µM (≈ 17.3 µg/mL)
- MIC [6, 14]: 9.4 µM (≈ 4.33 µg/mL)
- MIC [7, 15]: 18.8 µM (≈ 8.66 µg/mL)
- MIC (Eschericia coli ESS): 9.4 µM (≈ 4.33 µg/mL)
- MIC [8, 16]: 4.7 µM (≈ 2.16 µg/mL)

SMILES: CCCN(CCC)c1cccc(/C=C/C(=O)c2ccccc2NCCN(C)C)c1 [B035, (E)-1-[2-(2-Dimethylamino-ethylamino)-phenyl]-3-(3-dipropylamino-phenyl)-propenone]
- activity against anaerobic bacteria [10]: activity against all microorganisms within the test panel

SMILES: COc1ccccc1-c1ccc(N2CCN(C)CC2)c(/C=C/C(=O)c2ccccc2NS(=O)(=O)c2ccccc2)c1 [B185, (E)-N-(2-{3-[2′-Methoxy-4-(4-methyl-piperazin-1-yl)-biphenyl-3-yl]-acryloyl}-phenyl)-benzenesulfonamide]
- IC50 (L. major promastigotes; Leishmania major): 200 nM
- Metabolic turn-over in vitro [9]: 0%

SMILES: Cc1cc(C)cc(-c2ccc(N(C)CCN(C)C)c(/C=C/C(=O)c3cccc(NCCN(C)C)c3)c2)c1 [B113, (E)-1-[3-(2-Dimethylamino-ethylamino)-phenyl]-3-{4-[(2-dimethylamino-ethyl)-methyl-amino]-3′,5′-dimethyl-biphenyl-3-yl}-propenone]
- Metabolic turn-over in vitro [9]: 4%

SMILES: COc1ccc(-c2ccccc2)cc1/C=C/C(=O)c1ccc(N(C)CCN(C)C)cc1 [B073, (E)-1-{4-[(2-Dimethylamino-ethyl)-methyl-amino]-phenyl}-3-(4-methoxy-biphenyl-3-yl)-propenone]
- activity against anaerobic bacteria [10]: activity against all microorganisms within the test panel

SMILES: CN(C)CCNc1ccc(C(=O)/C=C/c2ccc(Cl)cc2Cl)cc1 [B022, (E)-3-(2,4-Dichloro-phenyl)-1-[4-(2-dimethylamino-ethylamino)-phenyl]-propenone]
- IC50 (L. major promastigotes; L. major): 800 nM
- activity against anaerobic bacteria [10]: activity against all microorganisms within the test panel

SMILES: CN(C)CCNc1ccc(C(=O)/C=C/c2cc(C(F)(F)F)cc(C(F)(F)F)c2)cc1 [B046, (E)-3-(3,5-Bis-trifluoromethyl-phenyl)-1-[4-(2-dimethylamino-ethylamino)-phenyl]-propenone]
- activity against anaerobic bacteria [10]: activity against all microorganisms within the test panel

SMILES: CCCCN(CCCC)c1cccc(/C=C/C(=O)c2ccccc2NCCCN(C)C)c1 [B033, (E)-3-(3-Dibutylamino-phenyl)-1-[2-(3-dimethylamino-propylamino)-phenyl]-propenone]
- activity against anaerobic bacteria [10]: activity against all microorganisms within the test panel

SMILES: CCCCc1ccc(/C=C/C(=O)c2ccc(N(C)CCN(C)C)cc2)cc1 [B060, (E)-3-(4-Butyl-phenyl)-1-{4-[(2-dimethylamino-ethyl)-methyl-amino]-phenyl}-propenone]
- activity against anaerobic bacteria [10]: activity against all microorganisms within the test panel

SMILES: Cc1ccccc1-c1ccc(N(C)CCN(C)C)c(/C=C/C(=O)c2ccccc2CN(C)C)c1 [B148, (E)-3-{4-[(2-Dimethylamino-ethyl)-methyl-amino]-2′-methyl-biphenyl-3-yl}-1-(2-dimethylaminomethyl-phenyl)-propenone]
- Solubility [2]: 3300 µg/mL (≈ 7.24 mM)

SMILES: COc1ccc(C(=O)/C=C/c2cc(-c3cc(C)cc(C)c3)ccc2N2CCN(C)CC2)c(F)c1 [B182, (E)-3-[3′,5′-Dimethyl-4-(4-methyl-piperazin-1-yl)-biphenyl-3-yl]-1-(2-fluoro-4-methoxy-phenyl)-propenone]
- MIC [3, 11]: 4.7 µM (≈ 2.16 µg/mL)
- MIC [4, 12]: 4.7 µM (≈ 2.16 µg/mL)
- MIC [5, 13]: 18.8 µM (≈ 8.62 µg/mL)
- MIC [6, 14]: 4.7 µM (≈ 2.16 µg/mL)
- MIC [7, 15]: 9.4 µM (≈ 4.31 µg/mL)
- MIC (Eschericia coli ESS): 75 µM (≈ 34.4 µg/mL)
- Metabolic turn-over in vitro [9]: 2%
- MIC [8, 16]: 4.7 µM (≈ 2.16 µg/mL)

SMILES: COc1ccc(C(=O)/C=C/c2cc(-c3cc(C)cc(C)c3)ccc2N(C)CCN(C)C)c(CN(C)C)c1 [B114, (E)-3-{4-[(2-Dimethylamino-ethyl)-methyl-amino]-3′,5′-dimethyl-biphenyl-3-yl}-1-(2-dimethylaminomethyl-4-methoxy-phenyl)-propenone]
- Solubility [2]: 4300 µg/mL (≈ 8.61 mM)

SMILES: CN(C)CCNc1ccc(C(=O)/C=C/c2ccc3ccccc3n2)cc1 [B067, (E)-1-[4-(2-Dimethylamino-ethylamino)-phenyl]-3-quinolin-2-yl-propenone]
- IC50 (L. major promastigotes; L. major): 900 nM

SMILES: COc1cc(/C=C/C(=O)c2cccc(N(C)CCN(C)C)c2)cc(OC)c1 [B047, (E)-3-(3,5-Dimethoxy-phenyl)-1-{3-[(2-dimethylamino-ethyl)-methyl-amino]-phenyl}-propenone]
- times more potent than LicA (L. major promastigotes; Leishmania Major, dose-response curve FIG. 7): 10

SMILES: CCCCN(CCCC)c1ccc(OC)c(/C=C/C(=O)c2ccccc2NCCN(C)C)c1 [B038, (E)-3-(5-Dibutylamino-2-methoxy-phenyl)-1-[2-(2-dimethylamino-ethylamino)-phenyl]-propenone]
- activity against anaerobic bacteria [10]: activity against all microorganisms within the test panel

SMILES: CN(C)CCNc1cccc(C(=O)/C=C/c2ccc(Cl)cc2Cl)c1 [B039, (E)-3-(2,4-Dichloro-phenyl)-1-[3-(2-dimethylamino-ethylamino)-phenyl]-40 propenone]
- IC50 (L. major promastigotes; L. major): 1000 nM
- activity against anaerobic bacteria [10]: activity against all microorganisms within the test panel

SMILES: CN(C)CCCNc1cc(Br)cc(/C=C/C(=O)c2ccccc2CN(C)C)c1 [B126, (E)-3-[3-Bromo-5-(3-dimethylamino-propylamino)-phenyl]-1-(2-dimethylaminomethyl-phenyl)-propenone]
- Solubility [2]: 8300 µg/mL (≈ 18.7 mM)
